From patent publication US9963480B2, “Nucleoside phosphoramidate compound and use thereof” (priority 2013, dated 2018) come the findings set out here.

Common to all, as to format: cell-based
The subject of one series is HCV 1b replicon. As to the kind of experiment: Antiviral activity assay in HCV replicon system (Huh7 1b cells, luciferase reporter). The note with it: Hepatitis C virus, Huh-7; Huh7 1b cells with HCV 1b replicon, Bright-Glo luciferase, 72 h; read-out: EC50. An excerpt:
The cell line Huh7 1b, which was provided by WuXi AppTec Co., Ltd. in Shanghai, contained an HCV 1b replicon with a stable Luciferase (Luc) reporter. It was constructed by cloning HCV nonstructural protein gene, neo (G418 resistance) and luciferase reporter gene into the pBR vector through gene recombination technology. Then the vector carrying the HCV replicon was transfected into Huh7 cells, and the transfected Huh7 cells were screened by G418 resistance. The HCV replicon was stably replicated, and the related protein and luciferase were stably expressed in Huh7 cells. The cells model was used for in-vitro screen of anti-HCV compounds. The anti-HCV activity of the compounds was measured by detecting the level of luciferase expression. See Lohmann V, et al. 1999. Replication of subgenomic hepatitis C virus RNAs in a hepatoma cell line. Science. 285(5424):110-113.
The control drug used in this experimental example was the compound of Example 25 in WO 2008/121634 (PCT/US2008/058183), i.e. (S)-2-{[(2R,3R,4R,5R)-5-(2,4-dioxo-3,4-dihydro-2H-pyrimidin-1-yl)-4-fluoro-3-hydr oxy-4-methyl-tetrahydro-furan-2-ylmethoxy]-phenoxy-phosphorylamino}-propanoic acid isopropyl ester. This compound was prepared according to the method described in J. Org. chem, 2011, 76, 8311-8319, and identified by H-NMR and mass spectrometry.
• 2.1 compound preparation: adding each of the compounds listed in Table 2 to 96-well plates using a POD™ 810 Automation Platform (LabCyte Corporation, USA), with 10 μM of each of the compounds as a starting concentration and in duplicate; serially diluting each of the compounds in 3-fold fashion and formulating 10 concentrations, with the final concentration of DMSO being 0.5%; • 2.2 cells preparation: seeding the Huh71b cells into 96-well plates respectively with a volume of 125 μl and 8×10^3 cells/well, and incubating in a 37° C., 5% CO2 incubator for 72 h; • 2.3 detection of cell activity: adding 30 μl per cell of the CellTiter-Fluor™ Reagent, incubating in a 37° C., 5% CO2 incubator for 1 h, measuring the fluorescence signal values with a fluorometer, and using the obtained data for calculation of cytotoxicities of the compounds; • 2.4 Bright-Glo detection: adding 100 μl per well of the Bright-Glo™ Luciferase Substrate, using a chemiluminescence detection system EnVision™ (PerkinElmer, USA) to detect the fluorescence signal values within 5 minutes, and using the obtained data for calculation of potencies of the compounds. • 2.5 data processing: converting the obtained data to a percentage of cell viability (Viability %) using the following formula:
[formula] • CPD: fluorescence signal value of the well added with the compound • ZPE (Zero percent effect): fluorescence signal value of the control well with zero percent effect. • Processing the raw data to calculate a percentage of inhibition (Inhibition %) using the following formula:
[formula] • CPD: fluorescence signal value of the well added with the compound; • HPE (Hundred percent effect): fluorescence signal value of the control well with hundred percent effect; • ZPE (Zero percent effect): fluorescence signal value of the control well with zero percent effect.
The inhibition percentage was processed by the GraphPad Prism software to obtain the corresponding curves and EC50 values.
In general terms: In antiviral work, replicon cells carry a viral genome segment that copies itself.

For series [1], the system named is J399EM (HCV genotype 2a) virus. As to the kind of experiment: Antiviral activity assay in the cell-culture-derived infectious HCV (HCVcc) system. The note with it: for half maximal effective concentration (EC50) against the HCVcc GT2a viruses, in words: in vitro HCVcc system. As for the experimental part: The compound according to the above example 1 was used in this experiment. The compound was formulated into a 10 mM mother liquid with DMSO, diluted to 500 nM by DMEM complete culture medium containing 0.5% of DMSO, followed by 4-fold dilution successively, and six concentrations were obtained. The positive control was diluted to 10 μM by DMEM complete culture medium containing 0.5% of DMSO, followed by 4-fold successively, and six concentrations were obtained.
(§1) Huh 7.5.1 cells, provided by Shanghai Institute of Materia Medica, Chinese Academy of Sciences.
J399EM (HCV genotype 2a) virus, i.e. a full length HCV mutant strain transfected with EGFP (enhanced green fluorescent protein) was used, which had the same infection capacity as the wild type JFH-1. The NS5A-EGFP fusion protein fluorescence was observed directly in infected cells by inserting EGFP coding sequence in the NS5A region. J399EM was provided by Shanghai Institute of Materia Medica, Chinese Academy of Sciences.
(§2) • 1) Huh 7.5.1 cells preparation: collecting the Huh7.5.1 cells in logarithmic phase, resuspending in DMEM complete culture medium, seeding into 96-well plates (7×10^3 cells/well), and incubating in a 37° C., 5% CO2 incubator for 24 h; • 2) virus infection: resuspending J399EM viruses in DMEM complete culture medium, adding the virus supernatant (MOI≈0.1) to the above 96-well plates, and washing with PBS after 8 hours of infection; • 3) drug treatment: adding various concentrations of the compounds to the Huh7.5.1 cells infected by J399EM viruses, with each concentration in duplicate; setting the control group with zero percent effect (ZPE) and the control group with hundred percent effect (HPE); replacing the compound with the DMEM complete culture medium containing 0.5% DMSO in ZPE group, and using the cells not infected with viruses in HPE group. • 4) cells incubation: incubating the 96-well plates in a 37° C., 5% CO2 incubator for 72 hr; • 5) anti-HCV activity detection: reading the relative fluorescence units (RFU) of each well by EnVision® Multi label Plate readers after incubation, and calculating the anti-HCV activity of the compounds using the obtained data according to the following formula: Inhibition %=(RFUZPE−RFUCPD)/(RFUZPE−RFUHPE)×100 • wherein RFUZPE represents the relative fluorescence units of the control group with zero percent effect and RFUCPD represents the relative fluorescence units of the corresponding compound group, and RFUHPE represents the relative fluorescence units of the control group with hundred percent effect. • 6) Cell viability detection: adding MTT solution to each well, incubating in a 37° C., 5% CO2 incubator for 4 hr, followed by addition of MTT dissolving solution, reading optical density (OD) of each well at 570 nm by the Multi label Plate readers after 6 hr, calculating the cytotoxicity of the compounds using the obtained data according to the following formula: Viability %=ODCPD/ODZPE×100 • wherein ODZPE represents the optical density of the control group with zero percent effect, and ODCPD represents the optical density of the corresponding compound; • 7) Data processing: processing the Inhibition %, Viability % by GraphPad Prism Software respectively, and obtaining the half maximal effective concentration (EC50) values and half maximal cytotoxic concentration (CC50) values of the compounds against the HVCcc GT2a viruses.

The test system of the next series is Huh 7.5.1 cells. As to the kind of experiment: Cell viability detection (MTT) in the HCVcc system. The note with it: in vitro HCVcc system. As for the experimental part: as §1, §2
Series [2] in a line: Cell viability detection (MTT) in the HCVcc system. The note with it: human, Huh 7.5.1 cells infected with J399EM virus (HCVcc); Huh 7.5.1 cells, MTT, 72 hr. As for the experimental part:
as §1, §2

pEC50: −log10 of the molar value.

As for `CC(C)OC(=O)[C@H](C)NP(=O)(OC[C@H]1O[C@@H](n2ccc(=O)[nH]c2=O)[C@](C)(F)[C@@H]1O)Oc1ccc(-c2cscn2)cc1` (stereo partly drawn) [Example 38, (2S)-2-(((4-(thiazol-4-yl)phenyloxy)(((2R,3R,4R,5R)-5-(2,4-dioxo-3,4-dihydropyrimidin-1(2H)-yl)-4-fluoro-3-hydroxy-4-methyltetrahydrofuran-2-yl)methoxy)phosphoryl)amino)propanoic Acid Isopropyl Ester], the negative logarithm of the EC50 (pEC50) – broadly, −log10 of the EC50, conventionally taken in molar units – in the series on HCV 1b replicon was 7.00. The “half maximal effective concentration (EC50) against the HCVcc GT2a viruses, in words” value (“half maximal effective concentration” for short) in series [1] was “low”. In the series on Huh 7.5.1 cells, the “half maximal cytotoxic concentration (CC50), in words” value (“half maximal cytotoxic concentration” for short) is “high”.
For `CC(C)OC(=O)[C@H](C)NP(=O)(OC[C@H]1O[C@@H](n2ccc(=O)[nH]c2=O)[C@](C)(F)[C@@H]1O)Oc1ccccc1` (stereo partly drawn) [Positive control, (S)-2-{[(2R,3R,4R,5R)-5-(2,4-dioxo-3,4-dihydro-2H-pyrimidin-1-yl)-4-fluoro-3-hydroxy-4-methyl-tetrahydro-furan-2-ylmethoxy]-phenoxy-phosphorylamino}-propanoic acid isopropyl ester, reference compound], the negative-log EC50 (pEC50) in the series with HCV 1b replicon was 6.93; in series [1] (Hepatitis C virus, Huh-7.5.1, 72 h), 6.76. The cytotoxic concentration (CC50) – broadly, the concentration that lowers cell viability or growth by half – at 72 h in series [2] was more than 10000 nM.
Regarding `CC(C)OC(=O)[C@H](C)NP(=O)(OC[C@H]1O[C@@H](n2ccc(=O)[nH]c2=O)[C@](C)(F)[C@@H]1O)Oc1ccc(-c2ccc(F)cc2)cc1` (stereo partly shown) [Example 5], the pEC50 in the series with HCV 1b replicon was 7.21. Moreover, the “half maximal effective concentration” value in series [1] was “low”. The “half maximal cytotoxic concentration” value with Huh 7.5.1 cells was “high”.
With `CC(C)OC(=O)[C@H](C)NP(=O)(OC[C@H]1O[C@@H](n2ccc(=O)[nH]c2=O)[C@](C)(F)[C@@H]1O)Oc1ccc(-c2nccs2)cc1` (stereo partly shown) [Example 16], the pEC50 in the series on HCV 1b replicon was 5.41. In series [1], the “half maximal effective concentration” value was “low”. Besides, the “half maximal cytotoxic concentration” value with Huh 7.5.1 cells is listed as “high”.
In the case of `CC(C)OC(=O)[C@H](C)NP(=O)(OC[C@H]1O[C@@H](n2ccc(=O)[nH]c2=O)[C@](C)(F)[C@@H]1O)Oc1ccc(-c2ccccc2)c(F)c1` (stereo partly drawn) [Example 28, (2S)-2-(((2-fluoro-[1,1′-biphenyl]-4-yloxy)(((2R,3R,4R,5R)-5-(2,4-dioxo-3,4-dihydropyrimidin-1(2H)-yl)-4-fluoro-3-hydroxy-4-methyltetrahydrofuran-2-yl)methoxy)phosphoryl)amino)propanoic Acid Isopropyl Ester], the pEC50 with HCV 1b replicon was 6.91. For the same compound, in series [1], the “half maximal effective concentration” value is listed as “low”. For the same compound, the “half maximal cytotoxic concentration” value in the series on Huh 7.5.1 cells is listed as “high”.
Regarding `CC(C)OC(=O)[C@H](C)NP(=O)(OC[C@H]1O[C@@H](n2ccc(=O)[nH]c2=O)[C@](C)(F)[C@@H]1O)Oc1ccc(-c2ccc(Cl)cc2F)cc1` (stereo partly shown) [Example 39], the negative-log EC50 (pEC50) with HCV 1b replicon was 7.21.
`CC(C)OC(=O)[C@H](C)NP(=O)(OC[C@H]1O[C@@H](n2ccc(=O)[nH]c2=O)[C@](C)(F)[C@@H]1O)Oc1ccc(-c2cccc(Cl)c2)cc1` (stereo partly drawn) [Example 32, (2S)-2-((((3′-chloro-[1,1′-biphenyl]-4-yl)oxy)(((2R,3R,4R,5R)-5-(2,4-dioxo-3,4-dihydropyrimidin-1(2H)-yl)-4-fluoro-3-hydroxy-4-methyltetrahydrofuran-2-yl)methoxy)phosphoryl)amino)propanoic Acid Isopropyl Ester]: the pEC50 in the series with HCV 1b replicon is 7.17.
For the compound `CC(C)OC(=O)[C@H](C)NP(=O)(OC[C@H]1O[C@@H](n2ccc(=O)[nH]c2=O)[C@](C)(F)[C@@H]1O)Oc1ccc(-c2csnn2)cc1` (stereo partly shown) [Example 12], the negative logarithm of the EC50 (pEC50) with HCV 1b replicon is 6.20. The “half maximal effective concentration” value in series [1] is “low”. Also, the “half maximal cytotoxic concentration” value in the series on Huh 7.5.1 cells is given as “high”.
As to `CC(C)OC(=O)[C@H](C)NP(=O)(OC[C@H]1O[C@@H](n2ccc(=O)[nH]c2=O)[C@](C)(F)[C@@H]1O)Oc1cccc(-c2ccccc2)c1` (stereo partly drawn) [Example 2, (2S)-2-((([1,1′-biphenyl]-3-yloxy)(((2R,3R,4R,5R)-5-(2,4-dioxo-3,4-dihydropyrimidin-1(2H)-yl)-4-fluoro-3-hydroxy-4-methyltetrahydrofuran-2-yl)methoxy)phosphoryl)amino)propanoic Acid Isopropyl Ester], the pEC50 with HCV 1b replicon is 6.98. In series [1], the “half maximal effective concentration” value is given as “low”. Also, in the series with Huh 7.5.1 cells, the “half maximal cytotoxic concentration” value is given as “high”.
In the case of `CC(C)OC(=O)[C@H](C)NP(=O)(OC[C@H]1O[C@@H](n2ccc(=O)[nH]c2=O)[C@](C)(F)[C@@H]1O)Oc1ccc(-c2ccc(C#N)cc2)cc1` (stereo partly shown) [Example 18], in the series with HCV 1b replicon, the negative-log EC50 (pEC50) was 6.50. For the same compound, the “half maximal effective concentration” value in series [1] is reported as “low”. The “half maximal cytotoxic concentration” value in the series on Huh 7.5.1 cells was “high”.
As for `Cc1ccc(-c2ccc(OP(=O)(N[C@@H](C)C(=O)OC(C)C)OC[C@H]3O[C@@H](n4ccc(=O)[nH]c4=O)[C@](C)(F)[C@@H]3O)cc2)cc1F` (stereo partly shown) [Example 40], the negative-log EC50 (pEC50) with HCV 1b replicon was 7.25.
Still for that read-out and setting: then `COc1ccc(-c2ccc(OP(=O)(N[C@@H](C)C(=O)OC(C)C)OC[C@H]3O[C@@H](n4ccc(=O)[nH]c4=O)[C@](C)(F)[C@@H]3O)cc2)cc1` (stereo partly shown) [Example 36], with 7.14.
